What was measured:
CDK9/Cyclin T1 = molecular target: T1, CDK9/Cyclin T1 (Homo sapiens, UniProt P50750); assay: LanthaScreen Eu Kinase Binding Assay, CDK9/Cyclin T1; settings: tracer 236, read-out: Affinity (Kd) CDK9/Cyclin T1
T1 construct: purchased Invitrogen
Procedure, shortened: (§1)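 TR-FRET competition binding with Alexa Fluor 647 tracer and Eu-anti-GST antibody; e.g. CDK2/Cyclin A 15 nM with tracer 236 60 nM (working solutions). Kinase buffer: HEPES 20 mM pH 8.0, MgCl2 10 mM, DTT 1 mM, Brij-35 0.01%; 8-point 1:3 series, 1 h at room temperature; Kd from sigmoidal dose-response curves.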

CDK9/Cyclin K = molecular target: T2, CDK9/Cyclin K (Homo sapiens, UniProt P50750); assay: LanthaScreen Eu Kinase Binding Assay, CDK9/Cyclin K; settings: tracer 236, read-out: Affinity (Kd) CDK9/Cyclin K
T2 construct: purchased Invitrogen
T2 sequence (P50750 whole entry): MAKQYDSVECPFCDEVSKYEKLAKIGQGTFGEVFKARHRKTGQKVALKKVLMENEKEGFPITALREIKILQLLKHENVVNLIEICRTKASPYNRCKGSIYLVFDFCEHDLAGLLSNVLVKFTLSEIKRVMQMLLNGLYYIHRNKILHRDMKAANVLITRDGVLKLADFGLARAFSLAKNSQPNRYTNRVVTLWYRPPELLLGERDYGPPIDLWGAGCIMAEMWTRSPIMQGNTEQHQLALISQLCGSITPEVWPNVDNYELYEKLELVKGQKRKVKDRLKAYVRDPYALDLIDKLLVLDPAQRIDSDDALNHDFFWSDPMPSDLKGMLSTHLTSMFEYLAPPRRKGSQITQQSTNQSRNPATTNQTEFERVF
T2 sequence (O75909 whole entry partner): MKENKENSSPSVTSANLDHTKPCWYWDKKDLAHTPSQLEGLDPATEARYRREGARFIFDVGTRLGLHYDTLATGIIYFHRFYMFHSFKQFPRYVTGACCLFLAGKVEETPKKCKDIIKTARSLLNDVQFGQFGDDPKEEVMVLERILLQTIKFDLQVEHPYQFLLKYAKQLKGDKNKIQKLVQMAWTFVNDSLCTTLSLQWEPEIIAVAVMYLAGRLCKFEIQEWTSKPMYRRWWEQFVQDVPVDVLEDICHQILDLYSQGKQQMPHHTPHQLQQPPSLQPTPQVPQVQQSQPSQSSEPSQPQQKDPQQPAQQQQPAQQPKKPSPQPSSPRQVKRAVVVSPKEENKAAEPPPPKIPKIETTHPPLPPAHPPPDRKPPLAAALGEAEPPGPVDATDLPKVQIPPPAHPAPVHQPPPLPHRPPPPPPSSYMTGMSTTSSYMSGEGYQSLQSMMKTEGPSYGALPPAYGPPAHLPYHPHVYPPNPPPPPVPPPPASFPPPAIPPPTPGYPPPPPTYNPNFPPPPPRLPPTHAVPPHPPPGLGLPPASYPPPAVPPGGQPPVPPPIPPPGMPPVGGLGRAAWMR
Protocol: This protocol describes how the LanthaScreen Eu Kinase Binding Assay was performed to determine dissociation constants (Kd) of compounds of general formula (I) and CDK/Cyclin complexes. The principle behind this assay is based upon the binding and displacement of an Alexa Fluor 647-labeled tracer, which binds to the active site of kinases. Binding of the tracer to the kinase is detected using a Eu-labeled antibody. Simultaneous binding of both the tracer and antibody to the kinase gives rise to a FRET-signal. Binding of an inhibitor to the kinase competes for binding with the tracer, resulting in a loss of FRET.
The compounds of general formula (I) summarized in Table 1 were diluted from a 10 mM DMSO stock solution 1:10 in a total volume of 15 μL DMSO. This compound predilution was then serial diluted 1:3 over 8 steps in DMSO and briefly spun down. Each compound solution was now diluted 1:33.33 in kinase buffer (HEPES: 20 mM, pH: 8.0; MgCl2: 10 mM; DTT: 1 mM; Brij-35: 0.01%), mixed thoroughly and spun down. For every sample, 5 μL of the diluted compound were mixed with 5 μL tracer working solution (e.g. 60 nM tracer 236 in kinase buffer for CDK2/Cyclin A) and 5 μL CDK/Cyclin/Anti-GST-AB-working solution (e.g. 15 nM CDK2/Cyclin A, 1:250 dilution of Anti-GST-AB in kinase buffer) in a well of a small volume 384 well plate (Corning Incorporated, Corning, N.Y., USA; order no. 3673). […] For positive controls, in each well 5 μL of DMSO working solution (3% DMSO diluted in kinase buffer) was mixed with 5 μL CDK/Cyclin/Anti-GST-AB-working solution: (e.g. 15 nM CDK2/Cyclin A, 1:250 dilution of Anti-GST-AB in kinase buffer) and 5 μL Tracer working solution (e.g. 60 nM Tracer 236 in kinase buffer for CDK2/Cyclin A). Positive and negative controls were calculated from at least 8 different sample wells. The 384 well plates were mixed in a Teleshaker plate mixer (Beckman Coulter, Brea, Calif., USA) at 2000 rpm for 40 sec, and incubated for 1 h at room temperature before reading. The FRET signal was measured at 340 nm excitation, 665 nm and 615 nm emission (for the kinase tracer and LanthaScreen Eu-AB, respectively) with an Envision spectrophotometer (Perkin Elmer, Waltham, Mass., USA) with 50 μs delay and 300 μs integration time. Kd values were determined from the sigmoidal dose response curves with the software Quattro Workflow (Quattro GmbH, Munich, Germany).

CDK7/CyclinH/Mat1 = molecular target: T3, CDK7/CyclinH/Mat1 (Homo sapiens, UniProt P50613); assay: LanthaScreen Eu Kinase Binding Assay, CDK7; settings: tracer 236, read-out: Affinity (Kd) CDK7
T3 construct: purchased Carna Biosciences
T3 sequence (P50613 whole entry): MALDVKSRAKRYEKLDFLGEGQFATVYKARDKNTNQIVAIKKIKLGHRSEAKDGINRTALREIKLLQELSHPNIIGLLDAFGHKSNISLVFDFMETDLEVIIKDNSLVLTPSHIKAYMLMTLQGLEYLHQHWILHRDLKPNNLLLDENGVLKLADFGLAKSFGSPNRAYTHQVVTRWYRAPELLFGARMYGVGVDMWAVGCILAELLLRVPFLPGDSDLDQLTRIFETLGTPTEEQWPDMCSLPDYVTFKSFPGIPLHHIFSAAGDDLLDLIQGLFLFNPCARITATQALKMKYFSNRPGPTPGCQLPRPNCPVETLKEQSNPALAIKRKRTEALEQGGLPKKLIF
T3 sequence (P51946 whole entry partner): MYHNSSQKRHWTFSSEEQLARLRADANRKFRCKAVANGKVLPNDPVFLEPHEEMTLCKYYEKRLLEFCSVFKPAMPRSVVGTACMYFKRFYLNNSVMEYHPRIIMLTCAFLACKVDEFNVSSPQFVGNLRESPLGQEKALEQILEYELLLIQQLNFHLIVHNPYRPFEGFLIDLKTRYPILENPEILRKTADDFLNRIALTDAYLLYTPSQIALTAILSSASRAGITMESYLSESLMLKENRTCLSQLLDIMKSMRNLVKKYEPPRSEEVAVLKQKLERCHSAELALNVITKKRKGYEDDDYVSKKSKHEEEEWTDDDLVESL
T3 sequence (P51948 whole entry partner): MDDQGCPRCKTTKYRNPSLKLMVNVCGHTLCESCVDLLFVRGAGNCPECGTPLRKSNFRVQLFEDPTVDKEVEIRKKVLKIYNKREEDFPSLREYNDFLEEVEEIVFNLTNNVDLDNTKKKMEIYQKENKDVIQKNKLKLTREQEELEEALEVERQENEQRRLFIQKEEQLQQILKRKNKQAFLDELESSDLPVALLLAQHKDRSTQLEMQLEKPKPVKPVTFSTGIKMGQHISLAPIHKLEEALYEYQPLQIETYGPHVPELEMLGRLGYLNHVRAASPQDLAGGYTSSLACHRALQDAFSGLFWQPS
Procedure, shortened: as §1

CDK2/CyclinA = molecular target: T4, CDK2/CyclinA (Homo sapiens, UniProt P24941); assay: LanthaScreen Eu Kinase Binding Assay, CDK2; settings: tracer 236, read-out: Affinity (Kd) CDK2
T4 construct: purchased Proqinase
Procedure, shortened: as §1

CDK9 = molecular target: T5, CDK9 (Homo sapiens, UniProt P50750); assay: Lance Ultra KinaSelect Assay, CDK9; format: biochemical; settings: read-out: Inhibition (IC50) CDK9
T5 construct: purchased Invitrogen
T5 sequence (P50750 whole entry): as the sequence (P50750 whole entry) above
Protocol: This protocol describes how the Lance Ultra KinaSelect Assay was performed to determine half maximal inhibitory concentration (IC50) of compounds of general formula (I) and CDK/Cyclin complexes. The principle behind this enzymatic assay is based upon the phosphorylation of the ULight-Peptide Substrat. It is detected by using a specific EU-labeled anti-phospho peptide antibody. The binding of the Eu-labeled anti-phospho peptide antibody to the phosphorylated U Light labeled peptide gives rise to a FRET-signal. Binding of an inhibitor to the kinase prevents phosphorylation of the ULight-MBP Substrat, resulting in a loss of FRET.
The compounds of general formula (I) summarized in Table 5 were diluted from a 10 mM DMSO stock solution 1:10 in a total volume of 15 μL DMSO. This compound predilution was then serial diluted 1:3 over 8 steps in DMSO and briefly spun down. Each compound solution was now diluted 1:20 in Enzymatic Buffer (HEPES: 50 mM, pH: 7.5; MgCl2: 10 mM; EGTA: 1 mM; DTT: 2 mM; Tween-20: 0.01%), mixed thoroughly and spun down. For every sample, 2 μL of the diluted compound were mixed with 6 μL CDK/Cyclin/Substrat solution and […] in a well of a small volume 384 well plate (Corning Incorporated, Corning, N.Y., USA; order no. 3673). […] For positive controls, in each well 2 μL of DMSO solution (1% final DMSO assay concentration) was mixed with 6 μL CDK/Cyclin/Substrat (appropriate final concentration see Table 3) and 2 μL Tracer ATP solution (appropriate final concentration see Table 3). Positive and negative controls were calculated from at least 8 different sample wells. The 384 well plates were mixed in a Teleshaker plate mixer (Beckman Coulter, Brea, Calif., USA) at 2000 rpm for 40 sec, and incubated for 1 h at room temperature. Before reading, 10 μL detection buffer (Lance Detection Buffer 1×; EDTA: […]; Eu-Anti-P-MBP: see Table 3) was added. The FRET signal was measured at 340 nm excitation, 665 nm and 615 nm emission (for the kinase tracer and LanthaScreen Eu-AB, respectively) with an Envision spectrophotometer (Perkin Elmer, Waltham, Mass., USA) with 50 μs delay and 300 μs integration time. IC50 values were determined from the sigmoidal dose response curves with the software Quattro Workflow (Quattro GmbH, Munich, Germany).

MDAMB468 cells = assay: Cell viability assay, MDAMB468 cells; format: cell-based; settings: Homo sapiens, MDA-MB-468, 72 h, Cell Titer Glo
Protocol: (§2) HeLa- or MDAMB468-Cells or MATU ADR, H460, DU145, CACO-2 or B16F10 cells were maintained in RPMI 1640 or McCoy's 5A cell culture medium+glutamine (PAN Biotech GmbH, Aidenbach, Germany; order no. P04-22100; P04-05500) supplemented with 10% fetal calf serum “Gold” (PAA Laboratories GmbH, Pasching, Austria; order no. A15-151) and grown at 37° C., 5% CO2. For the cell viability assay, cells were seeded with a density of 400 (Hela cells, DSMZ Braunschweig order no. ACC57) or 800 (MDAMB468 cells, ATCC order no. HTB-132) per well in 25 μL in 384-well plates (Greiner Bio-One, Frickenhausen, Germany; order no. 781080). After overnight incubation at 37° C./5% CO2, 25 nL or 75 nL compound were added to each sample well by using BIOMEK FXP Laboratory Automation Workstation (Beckman Coulter, USA). Wells with cells and 0.1% or 0.3% DMSO in culture medium were used as positive controls, wells with cells and 10 μM staurosporine in culture medium were used as negative controls. The cells were incubated with the compounds for 72 h at 37° C./5% CO2. For measurement of cell viability […] Cell Titer Glo reagent (Promega, Madison, USA; order no. G7573), 1:2 diluted with cell culture medium, was added to each well. The 384well-plates were placed for 2 min on an orbital microplate shaker and incubated for further 10 min at room temperature to stabilize the luminescence signal. Luminescence was measured by Envision Plate Reader (Perkin Elmer, USA). EC50 values were calculated with the software Excel Fit (IDBS, Guildford, UK) from 3-fold dilution series comprising at least 8 concentrations in duplicates.

CDK2/CycE = molecular target: T6, CDK2/CycE (Homo sapiens, UniProt P24941); assay: CDK2/CycE kinase assay (TR-FRET); format: biochemical; settings: ATP 10 μM, values given in μM
T6 construct: GST; purchased ProQinase GmbH (Freiburg, Germany); host or cells: insect cells (Sf-9)
Source text: CDK2/CycE-inhibitory activity of compounds of the present invention was quantified employing the CDK2/CycE TR-FRET assay as described in the following paragraphs.
Recombinant fusion proteins of glutathione S-transferase (GST) and human CDK2 and of GST and human CycE, expressed in insect cells (Sf-9) and purified by glutathion-sepharose affinity chromatography, were purchased from ProQinase GmbH (Freiburg, Germany). A biotinylated peptide biotin-Ttds-[…] (C-terminus in amide form), which can be purchased from e.g the company JERINI Peptide Technologies (Berlin, Germany), was used as a substrate for the kinase reaction.
For the assay, 50 nl of a 100-fold concentrated solution of the test compound in DMSO was pipetted into a well of a black low-volume 384-well microtiter plate (Greiner Bio-One, Frickenhausen, Germany), 2 μl of a solution of CDK2/CycE in aqueous assay buffer [50 mM Tris/HCl pH 8.0], 10 mM MgCl2, 1.0 mM dithiothreitol, 0.1 mM sodium ortho-vanadate, 0.01% (v/v) Nonidet-P40 (Sigma)] were added. The mixture was incubated at 22° C. for 15 min to allow pre-binding of the test compounds to the enzyme before the start of the kinase reaction. […] The resulting mixture was incubated at 22° C. for 25 minutes. The concentration of CDK2/CycE was adjusted depending on the activity of the enzyme lot and was chosen appropriately for measurements in the linear range of the assay. Typical concentrations were in the range of 130 ng/ml. The reaction was stopped by the addition of 5 μl of a solution of TR-FRET detection reagents (0.2 μM streptavidine-XL and 1 nM anti-RB(pSer807/pSer811)-antibody from BD Pharmingen [#558389] and 1.2 nM LANCE EU-W1024 labeled anti-mouse IgG antibody [Perkin-Elmer, product no. AD0077]) in an aqueous EDTA-solution (100 mM EDTA, 0.2% (w/v) bovine serum albumin in 100 mM HEPES/NaOH, pH 7.0).
The resulting mixture was incubated at 22° C. for one hour to allow the formation of a complex between the phosphorylated biotinylated peptide and the detection reagents. Subsequently, the amount of phosphorylated substrate was evaluated by measuring the resonance energy transfer from the Eu-chelate to the streptavidine-XL. Therefore, the fluorescence emissions at 620 nm and 665 nm after excitation at 350 nm were measured in a high time-resolved fluorometry (HTRF) reader, e.g. a Rubystar (BMG Labtechnologies, Offenburg, Germany) or a Viewlux (Perkin-Elmer). The ratio of the emissions at 665 nm and at […] was taken as a measure for the amounts of phosphorylated substrate. The data were normalised, i.e. enzyme reaction without inhibitor corresponds to 0% inhibition, and all other assay components in the absence of the enzyme correspond to 100% inhibition. IC50 values were calculated by a 4-parameter fit using in-house software.

HeLa cells = assay: Cell viability, HeLa cells; format: cell-based; settings: Homo sapiens
Protocol: as §2
Cultivated tumour cells (NCl-H460, human non-small cell lung carcinoma cells, ATCC HTB-177; DU 145, hormone-independent human prostate carcinoma cells, ATCC HTB-81; HeLa-MaTu, human cervical carcinoma cells, EPO-GmbH, Berlin; HeLa-MaTu-ADR, multidrug-resistant human cervical carcinoma cells, EPO-GmbH, Berlin; HeLa human cervical tumour cells, ATCC CCL-2; Caco-2 human colorectal carcinoma, ATCC HTB-37; B16F10 mouse melanoma cells, ATCC CRL-6475) were plated at a density of 5,000 cells/well (DU145, HeLa-MaTu-ADR), 3,000 cells/well (NCl-H460, HeLa-MaTu, HeLa), 1,500 cells/well (Caco-2), or 1,000 cells/well (B16F10) in a 96-well multititer plate in 200 μL of their respective growth medium supplemented with 10% fetal calf serum. After 24 hours, the cells of one plate (zero-point plate) were stained with crystal violet (see below), while the medium of the other plates was replaced by fresh culture medium (200 μl), to which the test substances were added in various concentrations (0 μM as well as in the range of 0.001 to 10 μM; the final concentration of the solvent dimethyl sulfoxide was 0.5%). The cells were incubated in the presence of test substances for 4 days. Cell proliferation was determined by staining the cells with crystal violet: The cells were fixed by adding 20 μl/measuring point of an 11% glutaric aldehyde solution at room temperature for 15 minutes. After three washing cycles of the fixed cells with water, the plates were dried at room temperature. The cells were stained by adding 100 μl/measuring point of a 0.1% crystal violet solution (pH 3.0). After three washing cycles of the stained cells with water, the plates were dried at room temperature. The dye was dissolved by adding 100 μl/measuring point of a 10% acetic acid solution. The extinction was determined by photometry at a wavelength of 595 nm. The change of cell number, in percent, was calculated by normalization of the measured values to the extinction values of the zero-point plate (equivalent to 0%) and the extinction of the untreated (0 μm) cells (equivalent to 100%). The IC50 values were determined by means of a 4 parameter fit using the company's own software.

T1 sequence (P50750 whole entry): as above
T1 sequence (O60563 whole entry partner): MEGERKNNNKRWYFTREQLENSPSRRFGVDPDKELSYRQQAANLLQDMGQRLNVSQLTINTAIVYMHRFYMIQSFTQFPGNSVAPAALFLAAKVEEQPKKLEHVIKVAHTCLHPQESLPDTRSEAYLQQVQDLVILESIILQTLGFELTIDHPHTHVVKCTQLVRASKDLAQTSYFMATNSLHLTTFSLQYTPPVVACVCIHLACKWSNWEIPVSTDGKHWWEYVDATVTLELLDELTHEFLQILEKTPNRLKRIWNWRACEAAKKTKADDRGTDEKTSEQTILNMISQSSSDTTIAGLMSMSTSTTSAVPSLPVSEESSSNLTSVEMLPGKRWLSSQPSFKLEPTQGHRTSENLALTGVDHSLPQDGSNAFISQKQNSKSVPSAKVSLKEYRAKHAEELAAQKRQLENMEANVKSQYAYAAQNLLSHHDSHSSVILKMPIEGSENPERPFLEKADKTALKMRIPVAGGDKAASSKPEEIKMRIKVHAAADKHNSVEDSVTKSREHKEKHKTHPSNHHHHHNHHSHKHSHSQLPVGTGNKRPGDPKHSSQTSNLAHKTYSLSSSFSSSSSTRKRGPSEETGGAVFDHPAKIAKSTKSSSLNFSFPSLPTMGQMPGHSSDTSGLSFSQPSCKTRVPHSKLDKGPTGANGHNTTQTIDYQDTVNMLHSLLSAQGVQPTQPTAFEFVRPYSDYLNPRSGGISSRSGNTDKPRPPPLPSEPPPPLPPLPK

| Kd (CDK9/Cyclin T1) | Kd (CDK9/Cyclin K) | Kd (CDK7/CyclinH/Mat1) | Kd (CDK2/CyclinA) | IC50 (CDK9) | IC50 (MDAMB468 cells) | IC50 (CDK2/CycE) | IC50 (HeLa cells) | Structure (SMILES) |
| --- | --- | --- | --- | --- | --- | --- | --- | --- |
| 136 nM | 301 nM | > 10000 nM | 2160 nM | 837 nM | 23000 nM | – | – | COc1ccccc1-c1ncnc(Nc2cccc(C(N)=O)c2)n1 [Compound E1, 3-[(4-(2-Methoxyphenyl)-1,3,5-triazin-2-yl)amino]benzamide] |
| – | – | – | – | – | – | 2.1 µM | 3400 nM | COc1ccccc1-c1cc(Nc2cccc(CS(N)(=O)=O)c2)ncn1 [Ref1, C-{3-[6-(2-Methoxy-phenyl)-pyrimidin-4-ylamino]-phenyl}-methanesulfonamide, reference compound] |

From patent US20130079345A1, “[…] ACTIVE DISUBSTITUTED TRIAZINE DERIVATIVES” (BAYER INTELLECTUAL PROPERTY GMBH, priority 2010, published 2013)
